In patent publication US20210181109A1 (FUJIFILM Corporation, priority 2018, published 2021):
Where two headings read alike, the source gives them in different places.

Key:
[1] = NAL depletion percent, HPLC-fluorescence detection; settings: single substance, test substance solution 1 mmol/L, fluorescence method
Summary of the method: (§1)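 NAL (5 μmol/L, pH 10.2 phosphate buffer) reacted with test substance (1 mmol/L stock in water, acetonitrile, acetone or 5% DMSO/acetonitrile) for 24 h at 25 °C in the dark; stopped with TFA to 0.5%. Unreacted NAL quantified by HPLC (UV or fluorescence), n=3; depletion % relative to substance-free blank.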

[2] = Average score of NAC and NAL depletion and prediction of skin allergenicity, fluorescence method
Summary of the method: (§2)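 Score is the mean of NAC and NAL depletion percentages, rounded at the second decimal place. Test substances classed as allergenic (S) or non-allergenic (NS) from depletion of NAC, NAL, or their average score.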

[3] = Average score of NAC and NAL depletion and prediction of skin allergenicity, UV method
Summary of the method: as §2

[4] = cited from earlier work
[5] = NAL depletion percent, HPLC-UV detection (281 nm); settings: single substance, test substance solution 1 mmol/L, Reference (UV method)
Summary of the method: as §1

[6] = NAC depletion percent, HPLC-fluorescence detection; settings: single substance, test substance solution 1 mmol/L, fluorescence method
Summary of the method: (§3)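 NAC at 5 μmol/L in pH 8.0 phosphate buffer reacted with test substance (1 mmol/L stock in water, acetonitrile, acetone or 5% DMSO/acetonitrile) 24 h at 25 °C in the dark, n=3. Stopped with TFA (0.5% final); unreacted NAC quantified by HPLC, depletion percent calculated against blank without test substance.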

[7] = NAC depletion percent, HPLC-UV detection (281 nm); settings: single substance, test substance solution 1 mmol/L, Reference (UV method)
Summary of the method: as §3

[8] = single substance, fluorescence method, criterion average score […]
[9] = single substance, test substance solution 1 mmol/L, fluorescence method
[10] = single substance, Reference (UV method), criterion average score […]
[11] = single substance, test substance solution 1 mmol/L, Reference (UV method)
[12] = known values, LLNA-test-based classification, − for non-allergenic substances

Row | Compound | NAL depletion (%) [1] | Prediction result [2, 8] | Average score [2, 9] | Prediction result [3, 10] | Average score [3, 11] | EC3 (%) [4, 12] | NAL depletion (%) [5] | NAC depletion (%) [6] | NAC depletion (%) [7] | Average score [2] | Prediction result [2] | Average score [3] | Prediction result [3] | EC3 (%) ([4]; in vivo)
1 | CCCCCCCCC(=O)Cl [Nonanoyl chloride] | 54.5% | S (S represents as being an allergenic substance) | 31.7% | S (S represents as being an allergenic substance) | 23.4% | 1.8% | 39.4% | 8.9% | 7.4% |  |  |  |  | 
2 | CCO/C=C1\N=C(c2ccccc2)OC1=O [Oxazolone] | 65.5% |  |  |  |  |  | 80.1% | 92.0% | 85.3% | 78.8% | S (key: S represents as being an allergenic substance; NS represents as being a non-allergenic substance) | 82.7% | S (key: S represents as being an allergenic substance; NS represents as being a non-allergenic substance) | 0.003%
3 | CCCCCCCCCCCCCCCC(=O)Cl [Palmitoyl chloride] | 98.3% | S (S represents as being an allergenic substance) | 54.9% | S (S represents as being an allergenic substance) | 50.8% | 8.8% | 95.9% | 11.5% | 5.8% |  |  |  |  | 
4 | C=C(C)C1CC=C(C=O)CC1 (centres unmarked) [Perillaldehyde] | 7.1% | S (S represents as being an allergenic substance) | 24.7% | S (S represents as being an allergenic substance) | 23.8% | 8.1% | 18.5% | 42.4% | 29.1% |  |  |  |  | 
5 | O=CCc1ccccc1 [Phenylacetaldehyde] | 96.2% | S (S represents as being an allergenic substance) | 52.9% | S (S represents as being an allergenic substance) | 60.3% | 3% | 98.3% | 9.5% | 22.4% |  |  |  |  | 
6 | O=C1OC(=O)c2ccccc21 [Phthalic anhydride] | 92.6% | S (S represents as being an allergenic substance) | 46.4% | S (S represents as being an allergenic substance) | 48.6% | 0.16% | 96.9% | 0.3% | 0.3% |  |  |  |  | 
7 | CCCOC(=O)c1cc(O)c(O)c(O)c1 [Propyl gallate] | 65.3% | S (S represents as being an allergenic substance) | 82.6% | S (S represents as being an allergenic substance) | 76.7% | 0.32% | 56.4% | 100.0% | 97.1% |  |  |  |  | 
8 | O=c1c(O)c(O)c1=O [Squaric acid] | 0.1% |  | 0.5% |  | 0.6% |  | 0.5% | 1.0% | 0.8% |  |  |  |  | 4.3%
9 | O=C(O)c1ccc2c(c1)C(=O)OC2=O [Trimellitic anhydride] | 94.2% | S (S represents as being an allergenic substance) | 47.5% | S (S represents as being an allergenic substance) | 49.4% | 0.6% | 97.0% | 0.8% | 1.9% |  |  |  |  | 
10 | O=C1C=CC(=O)C=C1 [p-Benzoquinone] | 71.8% |  | 85.9% | S (S represents as being an allergenic substance) | 90.0% | 0.0099% | 83.5% | 100.0% | 96.5% |  | S (key: S represents as being an allergenic substance; NS represents as being a non-allergenic substance) |  |  | 
11 | CCC/C=C/C=O [trans-2-Hexanal] | 11.4% | S (S represents as being an allergenic substance) | 54.6% | S (S represents as being an allergenic substance) | 46.3% | 5.5% | 12.3% | 97.9% | 80.4% |  |  |  |  | 
12 | CCCCCC(C=O)=Cc1ccccc1 [α-Amylcinnamaldehyde] | 0.4% | NS (NS represents as being a non-allergenic substance) | 0.3% | NS (NS represents as being a non-allergenic substance) | 0.8% | 11% | 1.6% | 0.3% | 0.0% |  |  |  |  | 
13 | CCCCCCC(C=O)=Cc1ccccc1 [α-Hexylcinnamaldehyde] | 0.0% | NS (NS represents as being a non-allergenic substance) | 0.0% | NS (NS represents as being a non-allergenic substance) | 0.6% | 11% | 1.1% | 0.0% | 0.0% |  |  |  |  | 
14 | Fluorescein isothiocyanate | 97.6% | S (S represents as being an allergenic substance) | 89.4% | S (S represents as being an allergenic substance) | 85.8% |  | 98.1% | 81.3% | 73.6% |  |  |  |  | 0.14%
15 | Kathon CG | 2.0% |  | 51.0% |  | 49.8% |  | −0.4% | 100.0% | 100.0% |  |  |  |  | 0.008%
16 | Vinylpyridine | 3.6% | S (S represents as being an allergenic substance) | 11.7% | S (S represents as being an allergenic substance) | 12.9% | 1.6% | 7.7% | 19.8% | 18.1% |  |  |  |  | 
